Laboratory results: ChEMBL document CHEMBL1201862, “PubChem BioAssay data set” (2004)
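Five compound concentrations were applied to cells in 96-well plates for 48 hours; endpoints were derived by simple linear interpolation of the resulting dose-response curve. GI50 = concentration required for 50% inhibition of growth.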 Activity calls are given as the source filed them. Cut-off read from the data, not from the text of the source: active = GI50 up to about 1.1 µM and inactive = higher.

Legend:
Test in all cases: inhibition of tumour cell growth, NCI panel, 48 h
[1] = test system: M14
[2] = test system: NCI-H522
[3] = test system: HCT-15
[4] = test system: COLO 205
[5] = test system: HOP-92
[6] = test system: OVCAR-8
[7] = test system: CAKI-1
[8] = test system: OVCAR-5
[9] = test system: HCC 2998
[10] = test system: UACC-62
[11] = test system: SK-MEL-28
[12] = test system: Malme-3M
[13] = test system: SN12C
[14] = test system: 786-0
[15] = test system: NCI-H23
[16] = test system: SK-MEL-2
[17] = test system: MOLT-4

Row | Structure (SMILES) | GI50 [1] | GI50 [2] | GI50 [3] [µM] | GI50 [4] | GI50 [5] | GI50 [6] | GI50 [7] | GI50 [8] | GI50 [9] | GI50 [10] | GI50 [11] | GI50 [12] | GI50 [13] | GI50 [14] | GI50 [15] | GI50 [16] | GI50 [17]
1 | O=C(O)CCC(NC(=O)c1ccccc1)C(=O)O (configuration not stated) | > 100 µM (inactive) | > 100 µM (inactive) | > 100 | 52.1 µM (inactive) | > 100 µM (inactive) | > 100 µM (inactive) | > 100 µM (inactive) | > 100 µM (inactive) | > 100 µM (inactive) | > 100 µM (inactive) | > 100 µM (inactive) | > 100 µM (inactive) | > 100 µM (inactive) | > 100 µM (inactive) | > 100 µM (inactive) | > 100 µM (inactive) | > 100 µM (inactive)
2 | O=C1CCC2(c3ccccc3)Nc3ncccc3N12 (configuration not stated) | > 100 µM (inactive) | > 100 µM (inactive) | > 100 | > 100 µM (inactive) | > 100 µM (inactive) | > 100 µM (inactive) | > 100 µM (inactive) | > 100 µM (inactive) | > 100 µM (inactive) | > 100 µM (inactive) | > 100 µM (inactive) | > 100 µM (inactive) | > 100 µM (inactive) | > 100 µM (inactive) | > 100 µM (inactive) | > 100 µM (inactive) | > 100 µM (inactive)
3 | COC(=O)C(CC1=C(O)Nc2ccccc2N1)/C(=N/NC(N)=O)C(=O)Nc1ccccc1C (configuration not stated) | > 100 µM (inactive) | 16.8 µM (inactive) | 16.6 | 28.5 µM (inactive) | 44 µM (inactive) | > 100 µM (inactive) | > 100 µM (inactive) | > 100 µM (inactive) | > 100 µM (inactive) | > 100 µM (inactive) | 34.7 µM (inactive) | > 100 µM (inactive) | > 100 µM (inactive) | > 100 µM (inactive) | > 100 µM (inactive) | > 100 µM (inactive) | > 100 µM (inactive)
4 | COc1ccc(N2C(=O)C(N3C(=O)C=CC3=O)C2C=O)cc1 (configuration not stated) | > 100 µM (inactive) | > 100 µM (inactive) | > 100 | > 100 µM (inactive) | > 100 µM (inactive) | > 100 µM (inactive) | > 100 µM (inactive) | > 100 µM (inactive) | > 100 µM (inactive) | > 100 µM (inactive) | > 100 µM (inactive) | > 100 µM (inactive) | > 100 µM (inactive) | > 100 µM (inactive) | > 100 µM (inactive) | > 100 µM (inactive) | 
5 | CCOC(=O)c1cnc2c(ccc3ncccc32)c1NCCCN(CC)CC | 19.1 µM (inactive) | > 100 µM (inactive) | 80.5 | 70.3 µM (inactive) | 65.8 µM (inactive) |  | > 100 µM (inactive) | > 100 µM (inactive) | > 100 µM (inactive) | > 100 µM (inactive) | 50 µM (inactive) | > 100 µM (inactive) |  | 37.9 µM (inactive) | 87.9 µM (inactive) | > 100 µM (inactive) | 23 µM (inactive)
6 | CCCC1C(=O)C(CC)Cc2c(OC)ccc(OC)c21 (configuration not stated) | > 100 µM (inactive) | > 100 µM (inactive) | > 100 | > 100 µM (inactive) | > 100 µM (inactive) | > 100 µM (inactive) | > 100 µM (inactive) | > 100 µM (inactive) | > 100 µM (inactive) | > 100 µM (inactive) | > 100 µM (inactive) | > 100 µM (inactive) | > 100 µM (inactive) | > 100 µM (inactive) |  | > 100 µM (inactive) | > 100 µM (inactive)
7 | COC(=O)C1C2CC3C(OC(=O)C31)C2OC(=O)[C@](OC)(c1ccccc1)C(F)(F)F (some centres not stated) | > 100 µM (inactive) | > 100 µM (inactive) | > 100 | > 100 µM (inactive) | > 100 µM (inactive) | > 100 µM (inactive) | > 100 µM (inactive) | > 100 µM (inactive) | > 100 µM (inactive) |  | > 100 µM (inactive) | > 100 µM (inactive) | > 100 µM (inactive) | > 100 µM (inactive) | > 100 µM (inactive) | > 100 µM (inactive) | > 100 µM (inactive)
8 | Cc1ccc(C)c(N2C/C(=N\NC(=O)CC#N)C(c3nc4ccccc4s3)C(=O)C2=O)c1 (configuration not stated) | > 100 µM (inactive) | > 100 µM (inactive) | > 100 | > 100 µM (inactive) | > 100 µM (inactive) | > 100 µM (inactive) | > 100 µM (inactive) |  | > 100 µM (inactive) | > 100 µM (inactive) | > 100 µM (inactive) | > 100 µM (inactive) | > 100 µM (inactive) | > 100 µM (inactive) | > 100 µM (inactive) | > 100 µM (inactive) | > 100 µM (inactive)
9 | O=C1c2ccccc2C(=O)N1CCn1ccc(NC(c2ccccc2)(c2ccccc2)c2ccccc2)nc1=O | 22 µM (inactive) | 20.2 µM (inactive) | 22.5 | 17.6 µM (inactive) | 18.5 µM (inactive) | 36.7 µM (inactive) | 9.62 µM (inactive) | 25.1 µM (inactive) | 21.4 µM (inactive) | 12.6 µM (inactive) | 18.2 µM (inactive) | 20.3 µM (inactive) | 26.2 µM (inactive) | 32 µM (inactive) | 24 µM (inactive) | 20.5 µM (inactive) | 17.5 µM (inactive)
10 | COc1ccc([C@@]2(O)c3c(ccc(O)c3OC)[C@H]2OC)c(OC)c1 | > 100 µM (inactive) | 28.8 µM (inactive) |  | 44.2 µM (inactive) | 53.6 µM (inactive) | 51.5 µM (inactive) | 35.7 µM (inactive) | > 100 µM (inactive) | 44.2 µM (inactive) | > 10 µM (inactive) | 47.8 µM (inactive) | > 100 µM (inactive) | 71.8 µM (inactive) | 41.8 µM (inactive) | 34.6 µM (inactive) | 63.4 µM (inactive) | 34.7 µM (inactive)
11 | O=C(NC1C2CC3CC(C2)CC1C3)c1ccncn1 (configuration not stated) | > 100 µM (inactive) | > 100 µM (inactive) | > 100 | > 100 µM (inactive) | > 100 µM (inactive) | > 100 µM (inactive) | > 100 µM (inactive) | > 100 µM (inactive) | > 100 µM (inactive) | > 100 µM (inactive) | > 100 µM (inactive) | > 100 µM (inactive) | > 100 µM (inactive) | > 100 µM (inactive) | > 100 µM (inactive) | > 100 µM (inactive) | 
12 | Cc1cccc(C)c1NC(=O)C1=NC(=S)NC(c2ccccc2)C1c1nc2ccccc2s1 (configuration not stated) | > 100 µM (inactive) | > 100 µM (inactive) |  | > 100 µM (inactive) | > 100 µM (inactive) | > 100 µM (inactive) | > 100 µM (inactive) |  | > 100 µM (inactive) | > 100 µM (inactive) | > 100 µM (inactive) | > 100 µM (inactive) | > 100 µM (inactive) | > 100 µM (inactive) | > 100 µM (inactive) | > 100 µM (inactive) | > 100 µM (inactive)
13 | CCN(CC)CCCN1CCc2c([nH]c3ccccc23)C1c1cccnc1 (configuration not stated) | 61.2 µM (inactive) | > 100 µM (inactive) | > 100 | > 100 µM (inactive) | 29.2 µM (inactive) | > 100 µM (inactive) | > 100 µM (inactive) | > 100 µM (inactive) | > 100 µM (inactive) | > 100 µM (inactive) | 38.4 µM (inactive) | 74.1 µM (inactive) | > 100 µM (inactive) | > 100 µM (inactive) | > 100 µM (inactive) | > 100 µM (inactive) | > 100 µM (inactive)
14 | COc1cc([C@@H]2c3cc4c(cc3[C@@H](NCc3cccc(F)c3)C3COC(=O)[C@@H]32)OCO4)cc(OC)c1O (some centres not stated) | 4.9 µM (inactive) | 6.93 µM (inactive) | 3.57 | 12.9 µM (inactive) | 7.53 µM (inactive) | 6.53 µM (inactive) | 6.85 µM (inactive) | 13.9 µM (inactive) | 9.77 µM (inactive) | 2.47 µM (inactive) | 8.61 µM (inactive) | 4.69 µM (inactive) | 2.14 µM (inactive) | 2.29 µM (inactive) | 1.95 µM (inactive) | 12.9 µM (inactive) | 0.364 µM (active)
15 | O=c1c2c(-c3ccccc3)c3ccccc3nc2cnn1-c1ccccc1 | > 100 µM (inactive) | 26.7 µM (inactive) | > 100 | 67 µM (inactive) | > 100 µM (inactive) | > 100 µM (inactive) | > 100 µM (inactive) | > 100 µM (inactive) | > 100 µM (inactive) | > 100 µM (inactive) | > 100 µM (inactive) | > 100 µM (inactive) | > 100 µM (inactive) | > 100 µM (inactive) | > 100 µM (inactive) | > 100 µM (inactive) | 96.2 µM (inactive)
16 | COc1cc(C[S+]2CCCC2)c(SC)cc1C[S+]1CCCC1 | > 100 µM (inactive) | > 100 µM (inactive) | > 100 | > 100 µM (inactive) | > 100 µM (inactive) | > 100 µM (inactive) | > 100 µM (inactive) | > 100 µM (inactive) | > 100 µM (inactive) | > 100 µM (inactive) | > 100 µM (inactive) | > 100 µM (inactive) | > 100 µM (inactive) | > 100 µM (inactive) | > 100 µM (inactive) | > 100 µM (inactive) | > 100 µM (inactive)
